Measurements as given in PMC12753220, “A new amidohydrolase and β-oxidation–like pathway for piperine catabolism in soil actinomycetes” (The Journal of Biological Chemistry, 2025).

Target: T1, PipM (piperine hydrolase) (Rhodococcus erythropolis, UniProt Z9TMQ3P3F8)
T1 construct: full length, no signal peptide, untagged (pET24a(+)-pipM), E. coli Rosetta2 (DE3); ORF 1389 nt (462 residues deduced), ~50 kDa monomer, homotetramer ~220 kDa; N-terminus of native protein NSFALSNV
T1 sequence (Z9TMQ3P3F8 1-462): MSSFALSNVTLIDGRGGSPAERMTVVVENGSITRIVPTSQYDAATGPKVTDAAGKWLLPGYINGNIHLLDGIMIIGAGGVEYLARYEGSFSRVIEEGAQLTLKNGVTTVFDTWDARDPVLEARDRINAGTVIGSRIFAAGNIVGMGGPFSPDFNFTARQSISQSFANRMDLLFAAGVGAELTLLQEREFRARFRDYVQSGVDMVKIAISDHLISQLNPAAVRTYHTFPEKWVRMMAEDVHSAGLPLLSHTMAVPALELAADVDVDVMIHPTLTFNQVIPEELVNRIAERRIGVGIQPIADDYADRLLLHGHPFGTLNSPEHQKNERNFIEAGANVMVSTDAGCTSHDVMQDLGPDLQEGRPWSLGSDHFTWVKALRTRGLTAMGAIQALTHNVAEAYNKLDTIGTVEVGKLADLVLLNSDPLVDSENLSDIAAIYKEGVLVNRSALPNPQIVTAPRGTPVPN
Assay: HPLC at […] nm of piperic acid formation, Michaelis-Menten fit
Type: biochemical
Details: 50 mM potassium phosphate pH 7.5, 28 °C, 1 min, 0.116 μM PipM, 0.001-0.5 mM piperine

## O=C(/C=C/C=C/c1ccc2c(c1)OCO2)N1CCCCC1 [piperine]
  Km: 2.11 ± 0.31 µM
